Test results reported in patent publication US10233186B2, “Inhibitors of activin receptor-like kinase” (BLUEPRINT MEDICINES CORPORATION, priority 2016, dated 2019).
pIC50: −log10 of the molar value.

The molecules below were run against T1, ALK2 R206H (GST-tagged mutant ALK2) (Homo sapiens, UniProt Q04771, R206H) (assay: ALK binding assay (LANTHASCREEN TR-FRET competitive binding, displacement of Kinase Tracer 178)). Details: ALK2 R206H, LANTHASCREEN TR-FRET competitive binding; read-out: Binding Assay (IC50).
T1 construct: purchased Carna Bioscience or ThermoFisher 09-148 or PV6232
T1 sequence (Q04771 21-509 R206H): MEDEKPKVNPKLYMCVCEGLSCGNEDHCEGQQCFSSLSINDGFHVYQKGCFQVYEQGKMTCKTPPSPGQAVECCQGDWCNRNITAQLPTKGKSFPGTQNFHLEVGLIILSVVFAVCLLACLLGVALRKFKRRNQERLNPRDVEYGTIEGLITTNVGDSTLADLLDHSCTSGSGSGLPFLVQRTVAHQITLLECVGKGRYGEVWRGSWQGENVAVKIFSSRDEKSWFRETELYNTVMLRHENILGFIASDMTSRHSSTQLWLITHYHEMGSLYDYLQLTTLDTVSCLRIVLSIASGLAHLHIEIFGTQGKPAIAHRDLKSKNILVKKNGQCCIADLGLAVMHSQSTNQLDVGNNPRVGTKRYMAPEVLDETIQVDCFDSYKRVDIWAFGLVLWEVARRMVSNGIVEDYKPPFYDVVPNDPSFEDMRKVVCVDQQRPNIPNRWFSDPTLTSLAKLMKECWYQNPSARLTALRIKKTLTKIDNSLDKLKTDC
Description: Binding assays were conducted using the LANTHASCREEN® technology (ThermoFisher Scientific). LANTHASCREEN® is a competitive binding, displacement assay where the assumed steady state occupancy of the binding site is measured using a time-resolved, fluorescence energy transfer (TR-FRET) readout between a fluorescent tracer and Europium (Eu)-tagged antibody specific for the kinase or expression tag (e.g. GST) of interest. Displacement of the tracer by a compound of the disclosure reduces, and is directly proportional to, the TR-FRET between the tracer and the antibody. Tracer was used at a concentration equal to or near to its Kd for the kinase.
In all cases, the kinase (2-5 nM) was mixed with Eu-tagged antibody (10 nM) mix and tracer (50 nM) were incubated with test compound titrations prepared in 100% DMSO (1% DMSO final) for 30 minutes at room temperature. All reagents and compounds were dissolved in Kinase Buffer A (ThermoFisher) to achieve the final concentration. […] This readout was normalized to 0% and 100% inhibited control wells, plotted against inhibitor concentration, and fitted to a 4-parameter log dose response curve.
Blank values in the table indicate that the particular compound was not tested in this assay.

| pIC50 | SMILES |
| --- | --- |
| 7.30 to 8.00 | CCN1CCN(c2ccc(-c3cc4c(N5CCN(C(=O)N6CC(OC)C6)CC5)ccnn4c3)cc2)CC1 [Compound 397] |
| 7.30 to 8.00 | CC(C)N1CCC(c2ccc(-c3cc4c(N5CCN(C(=O)N6CCC67COC7)CC5)ccnn4c3)cc2)CC1 [Compound 842] |
| > 8.00 | CO[C@@]1(c2ccc(-c3cc4c(N5CCN(C(=O)NC(C)C)CC5)ccnn4c3)cc2F)CCCNC1 [Compound 807] |
| > 8.00 | O=C(C1CC1)N1CCN(c2ccnn3cc(-c4ccc(NC5=NCCN5)cc4)cc23)CC1 [Compound 121, cyclopropyl(4-(6-(4-(4,5-dihydro-1H-imidazol-2-ylamino)phenyl)pyrrolo[1,2-b]pyridazin-4-yl)piperazin-1-yl)methanone] |
| > 8.00 | Cc1nc(C2CCNCC2)sc1-c1cc2c(N3CCN(C(=O)C4CC4)CC3)ccnn2c1 [Compound 190] |
| > 8.00 | CCOC1(c2ccc(-c3cc4c(N5CCN(C(=O)OC6COC6)CC5)ccnn4c3)nc2)CCN(C(C)CF)CC1 (stereo not shown) [Compound 881] |
| 7.30 to 8.00 | CCN1CCN(c2ccc(-c3cc4c(N5CCN(C(=O)C6(F)CC6)CC5)ccnn4c3)cc2)CC1 [Compound 294] |
| 7.30 to 8.00 | CC(C)N1CCN(c2cnc(-c3cc4c(N5CCN(C(=O)C6CC6)CC5)ccnn4c3)nc2)CC1 [Compound 528] |
| > 8.00 | CCOC(=O)N1CCN(c2ccnn3cc(-c4ncc(N5CCN(C(C)C)CC5)cn4)cc23)CC1 [Compound 555] |
| < 7.30 | O=C(C1CC1)N1CCN(c2ccnn3cc(-c4ccc(Br)cc4)cc23)CC1 [Compound 119] |
| 7.30 to 8.00 | CCNC(=O)N1CCN(c2ccnn3cc(-c4ccc([C@H]5CNCCO5)cc4)cc23)CC1 [Compound 141] |
| 7.30 to 8.00 | CC(C)N1CCC(c2ccc(-c3cc4c(N5CCN(C(=O)C6(C7CC7)CC6)CC5)ccnn4c3)cc2)CC1 [Compound 414] |
| 7.30 to 8.00 | CCN1C[C@H]2CN(c3ccnn4cc(-c5ccc(N6CCN(C(C)C)CC6)cc5)cc34)CCN2C1=O [Compound 331] |
| 7.30 to 8.00 | CCN1CCN(c2ccc(-c3cc4c(N5CCN(C(C)=O)CC5)ccnn4c3)cc2)CC1 [Compound 136] |
| > 8.00 | CC(C)N1CC=C(c2ccc(-c3cc4c(N5CCN(C(=O)C6CC6)CC5)ccnn4c3)c(F)c2)CC1 [Compound 571] |
| > 8.00 | NC(c1ccc(-c2cc3c(N4CCN(C(=O)C5CC5)CC4)ccnn3c2)cc1)C1CCCO1 (stereo not shown) [Compound 769] |
| 7.30 to 8.00 | C[C@H]1CNC[C@@H](c2ccc(-c3cc4c(N5CCN(C(=O)C6CC6)CC5)ccnn4c3)cc2)O1 [Compound 165] |
| 7.30 to 8.00 | O=C(C1CC1)N1CCN(c2ccnn3cc(-c4ccc([C@H]5CCNC[C@H]5F)cc4)cc23)CC1 [Compound 175] |
| 7.30 to 8.00 | CCN1CCN(c2ccc(-c3cc4c(N5CCN(C(=O)N6CC7(COC7)C6)CC5)ccnn4c3)cc2)CC1 [Compound 417] |
| 7.30 to 8.00 | CCN1CCC(n2ccc(-c3cc4c(N5CCN(C(=O)C6CC6)CC5)ccnn4c3)n2)C1 (stereo not shown) [Compound 138] |
| < 7.30 | CCN1CCC(c2ccc(-c3cc4c(N5CCN(C(=O)C6(C(F)(F)F)CC6)CC5)ccnn4c3)cc2)C1 (stereo not shown) [Compound 410] |
| 7.30 to 8.00 | CCN1CCC(n2cc(-c3cc4c(N5CCN(C(=O)C6CC6)CC5)ccnn4c3)cn2)CC1 [Compound 183] |
| 7.30 to 8.00 | O=C(C1CC1)N1CCN(c2ccnn3cc(-c4ccc(C5CCOCC5)cc4)cc23)CC1 [Compound 126] |
| < 7.30 | CCN1CCN(c2ccc(-c3cc4c(N5CCN(C(=O)C6(c7nccs7)CC6)CC5)ccnn4c3)cc2)CC1 [Compound 440] |
| < 7.30 | CCN1CCN(c2ccc(-c3cc4c(N5CCN(C(=O)N6CC(COC)C6)CC5)ccnn4c3)cc2)CC1 [Compound 425] |

| SMILES | pIC50 |
| --- | --- |
| COC1(c2ccc(-c3cc4c(N5CCN(C(=O)[C@H]6C[C@H](C#N)C6)CC5)ccnn4c3)nc2)CCN([C@H](C)CO)CC1 [Compound 742] | > 8.00 |
| CC(C)N1CCC(c2ccc(-c3cc4c(N5CC6CC(C5)N6C(=O)C5CC5)ccnn4c3)cc2)CC1 [Compound 306] | 7.30 to 8.00 |
| CCNC(=O)N1CC2CC(C1)N2c1ccnn2cc(-c3ccc(C4CCN(C(C)C)CC4)cc3)cc12 [Compound 319] | < 7.30 |
